Data taken from patent publication US20190249134A1, “CELL CULTURES AND USE THEREOF” (Boston Biomedical, Inc., priority 2016, published 2019).

Assays:
[1] = tested on: A549 cells; assay: Sphere formation assay in alginate-based 3D cell culture, IC50 compared with clonogenic assay in conventional 2D culture; conditions: for IC50 in the alginate-based 3D cell culture relative to the conventional 2D culture: 3D sphere formation vs 2D clonogenic assay, FIG. 4A; for fold change resistance (IC50 in alginate-based 3D cell culture divided by IC50 in conventional 2D culture): FIG. 4B
Text: Without limiting the scope of the present disclosure or appended claims with any particular theory or hypothesis, since the stemness is associated with a resistance to chemotherapy, cells cultured in an alginate-based 3D cell culture may be more resistant to chemotherapy drugs and more sensitive to stemness-targeting drugs than cells cultured in traditional 2D cultures. To evaluate the response of cells to drugs, the IC50 values of cells in both the alginate-based 3D and the conventional 2D cell cultures were determined. FIG. 4A summarizes the IC50 of the CSC-targeting therapies (BBI-608, BBI-503), chemotherapies (doxorubicin and gemcitabine), and a targeted therapy (sunitinib) with respect to A549 cells in the alginate-based 3D cell culture and the traditional 2D culture. […] To compare the effect of culturing cells in the alginate-based 3D and the conventional 2D cell cultures on IC50, the fold change in resistance can be calculated by obtaining the ratio of IC50 value in the alginate-based 3D cell culture to the IC50 value in the conventional 2D culture.
Into each well of a flat bottom-96 well plate, 30 μL suspension of the cells in alginate solution was dispensed. 9 μL of crosslinking solution was then added to each well to form alginate gels and thus embed A549 cells into the gel matrix. The plates were then incubated for 15 minutes at 37° C. to ensure a complete gelling of alginate, and then cultured in Prime XV media overnight. After the overnight culture, the cells were treated with various concentrations of BBI-608, BBI-503, sunitinib, doxorubicin, or gemcitabine for 24 h. The plates were then washed and cultured in fresh media for an additional 11 days before imaging the cultures with Celigo Imaging Cytometer (Nexcelcom Bioscience, Lawrence, Mass.). The number of spheres were counted, and used to calculate the IC50 values using Prism 5 (GraphPad).
A549 cells were plated in 6-well plates (1×10^3 A549 cells/well). After an overnight incubation in DMEM media, the cells were treated with various concentrations of BBI-608 for 24h, or BBI-503, sunitinib, doxorubicin, and gemcitabine for 72 hours. The plates were washed, and cultured in fresh media for an additional 6 days before staining the colonies with Giemsa Stain (Sigma, St. Louis, Mo.). The colonies were imaged using a ChemiDoc™ MP Imaging System (BioRad), and the number of colonies were counted using ImageJ (National Institutes of Health, Bethsada, Md.), and the IC50 values calculated using Prism 5.

[2] = tested on: A549 cellular spheroids; assay: Efficacy on pre-formed cellular spheroids in alginate-based 3D cell culture (CellTox dead stain); conditions: pre-formed A549 spheroids (11 days), concentrations near IC50 values, 7 days after drug treatment; FIG. 5
Protocol: To evaluate the efficacy of the drugs in diffusion-limited environments, A549 cells were embedded and cultured for 11 days before any drug treatment (BBI-608, BBI-503, gemcitabine, or doxorubicin). Spheroids of A549 cells were pre-formed from single cells embedded in an alginate-based 3D cell culture for 11 days. The pre-formed spheroids were treated with drugs (0.3 μM BBI-608, 2.5 μM BBI-503, 30 μM sunitinib, 4 μM doxorubicin, 0.5 μM gemcitabine) and incubated with the dead stain CellTox Dye. Micrographs were taken 7 days after the drug treatments.
In a 6-well plate, A549 cells were embedded in an alginate-based 3D cell culture and cultured for 11 days before addition of BBI-608, BBI-503, sunitinib, doxorubicin, and gemcitabine. Cells were cultured for an additional 7 days before staining them with CellTox™ Green Dye (Promega) to stain the dead cells. Images of the stained samples were taken using an EVOS fluorescence microscope (Life Technologies, Carlsbad, Calif.).

IC50 in the alginate-based 3D cell culture relative to the conventional 2D culture [1] | fold change resistance (IC50 in alginate-based 3D cell culture divided by IC50 in conventional 2D culture) [1] | SMILES | cell death, share of spheroids [2]
greater | – | COc1cccc2c1C(=O)c1c(O)c3c(c(O)c1C2=O)C[C@@](O)(C(=O)CO)C[C@@H]3O[C@H]1C[C@H](N)[C@H](O)[C@H](C)O1 [doxorubicin, reference compound] | –
lower | less than single-fold | CC(=O)c1cc2c(o1)C(=O)c1ccccc1C2=O [BBI-608, 2-acetylnaphtho[2,3-b]furan-4,9-dione] | about 90%
lower | less than single-fold | CCN(CC)CCNC(=O)c1c(C)[nH]c(/C=C2\C(=O)Nc3ccc(-c4csc(-c5ccccc5)n4)cc32)c1C [BBI-503] | about 90%
greater | – | Nc1ccn([C@@H]2O[C@H](CO)[C@@H](O)C2(F)F)c(=O)n1 [gemcitabine, reference compound] | –
